Assay results taken from PubChem BioAssay AID2060504 (Molecular Pharmacology Branch, DTP, NCI, 2025).
Blank lines part the entries; values can stand above or below the compound they belong to.

Test system: 636577-100-R-J1-PDC complex spheroid viability
Assay: Anticancer human tumor 636577-100-R-J1-PDC patient-derived endometrial adenocarcinoma cell line growth inhibition [GQUAD]
Conditions: for IC50: curve of first compound; for viability, T/C: stronger effect = lower value
Method in brief: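 Viability of tumor cells grown as complex spheroids with endothelial and stromal cells, exposed to drug combinations. Top concentration at or near clinical Cmax (else 10 microM), diluted in half-log increments.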

[1] = second compound 0.0316 µM, first compound 0.0316 µM
[2] = second compound 0.0316 µM, first compound 0.316 µM
[3] = second compound 0.1 µM, first compound 0.0316 µM
[4] = second compound 0.1 µM, first compound 0.316 µM
[5] = second compound 0.316 µM, first compound 0.0316 µM
[6] = second compound 0.316 µM, first compound 0.316 µM
[7] = second compound 1 µM, first compound 0.0316 µM
[8] = second compound 1 µM, first compound 0.316 µM
[9] = second compound 3.16 µM, first compound 0.0316 µM
[10] = second compound 3.16 µM, first compound 0.316 µM
[11] = second compound 10 µM, first compound 0.0316 µM
[12] = second compound 10 µM, first compound 0.316 µM
[13] = second compound 0.0316 µM, first compound 0.1 µM
[14] = second compound 0.0316 µM, first compound 1 µM
[15] = second compound 0.0316 µM, first compound 3.16 µM
[16] = second compound 0.0316 µM, first compound 10 µM
[17] = second compound 0.1 µM, first compound 0.1 µM
[18] = second compound 0.1 µM, first compound 1 µM
[19] = second compound 0.1 µM, first compound 3.16 µM
[20] = second compound 0.1 µM, first compound 10 µM
[21] = second compound 0.316 µM, first compound 0.1 µM
[22] = second compound 0.316 µM, first compound 1 µM
[23] = second compound 0.316 µM, first compound 3.16 µM
[24] = second compound 0.316 µM, first compound 10 µM
[25] = second compound 1 µM, first compound 0.1 µM
[26] = second compound 1 µM, first compound 1 µM
[27] = second compound 1 µM, first compound 3.16 µM
[28] = second compound 1 µM, first compound 10 µM
[29] = second compound 3.16 µM, first compound 0.1 µM
[30] = second compound 3.16 µM, first compound 1 µM
[31] = second compound 3.16 µM, first compound 3.16 µM
[32] = second compound 3.16 µM, first compound 10 µM
[33] = second compound 10 µM, first compound 0.1 µM
[34] = second compound 10 µM, first compound 1 µM
[35] = second compound 10 µM, first compound 3.16 µM
[36] = second compound 10 µM, first compound 10 µM
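Note: viability read after seven days of drug exposure.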
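Throughout, for viability, T/C: luminescence signal used as a proxy for viable cells; 100% = DMSO vehicle control wells.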

IC50 (second compound 0.0316 µM): < 0.999 nM
IC50 (second compound 0.1 µM): < 0.999 nM
IC50 (second compound 0.316 µM): < 0.999 nM
IC50 (second compound 1 µM): < 0.999 nM
IC50 (second compound 3.16 µM): < 0.999 nM
IC50 (second compound 10 µM): < 0.999 nM
Compound: Cc1[nH]c2ccccc2c1CCNCc1ccc(/C=C/C(=O)NO)cc1 + Cc1cnc(CNC(=O)c2c(=O)c3ccc(N4CCCN(C)CC4)nc3n3c2sc2ccccc23)cn1
viability, T/C (second compound 0.0316 µM, first compound 0.000999 µM): 49.7%
viability, T/C (second compound 0.0316 µM, first compound 0.00316 µM): 28.9%
viability, T/C (second compound 0.0316 µM, first compound 0.00999 µM): 20.8%
viability, T/C [1]: 12.3%
viability, T/C (second compound 0.0316 µM, first compound 0.0999 µM): 6.33%
viability, T/C [2]: 8.17%
viability, T/C (second compound 0.1 µM, first compound 0.000999 µM): 32.3%
viability, T/C (second compound 0.1 µM, first compound 0.00316 µM): 22.8%
viability, T/C (second compound 0.1 µM, first compound 0.00999 µM): 24.6%
viability, T/C [3]: 12.8%
viability, T/C (second compound 0.1 µM, first compound 0.0999 µM): 6.63%
viability, T/C [4]: 8.31%
viability, T/C (second compound 0.316 µM, first compound 0.000999 µM): 26.1%
viability, T/C (second compound 0.316 µM, first compound 0.00316 µM): 24.2%
viability, T/C (second compound 0.316 µM, first compound 0.00999 µM): 18.9%
viability, T/C [5]: 13.2%
viability, T/C (second compound 0.316 µM, first compound 0.0999 µM): 9.48%
viability, T/C [6]: 8.5%
viability, T/C (second compound 1 µM, first compound 0.000999 µM): 21.1%
viability, T/C (second compound 1 µM, first compound 0.00316 µM): 20.9%
viability, T/C (second compound 1 µM, first compound 0.00999 µM): 18.7%
viability, T/C [7]: 11.1%
viability, T/C (second compound 1 µM, first compound 0.0999 µM): 8.25%
viability, T/C [8]: 8.1%
viability, T/C (second compound 3.16 µM, first compound 0.000999 µM): 20.2%
viability, T/C (second compound 3.16 µM, first compound 0.00316 µM): 23.3%
viability, T/C (second compound 3.16 µM, first compound 0.00999 µM): 21.2%
viability, T/C [9]: 12.3%
viability, T/C (second compound 3.16 µM, first compound 0.0999 µM): 10.4%
viability, T/C [10]: 5.1%
viability, T/C (second compound 10 µM, first compound 0.000999 µM): 22.6%
viability, T/C (second compound 10 µM, first compound 0.00316 µM): 24.1%
viability, T/C (second compound 10 µM, first compound 0.00999 µM): 20.1%
viability, T/C [11]: 11.8%
viability, T/C (second compound 10 µM, first compound 0.0999 µM): 12.2%
viability, T/C [12]: 0.15%

IC50 (second compound 0.0316 µM): < 31.6 nM
IC50 (second compound 0.1 µM): < 31.6 nM
IC50 (second compound 0.316 µM): < 31.6 nM
IC50 (second compound 1 µM): < 31.6 nM
IC50 (second compound 3.16 µM): < 31.6 nM
IC50 (second compound 10 µM): < 31.6 nM
Compound: COc1cccc2c1C(=O)c1c(O)c3c(c(O)c1C2=O)CC(O)(C(=O)CO)CC3OC1CC(N)C(O)C(C)O1 (stereo unspecified) + Cc1cnc(CNC(=O)c2c(=O)c3ccc(N4CCCN(C)CC4)nc3n3c2sc2ccccc23)cn1
viability, T/C [1]: 22.1%
viability, T/C [13]: 16.6%
viability, T/C [2]: 15.6%
viability, T/C [14]: 8.2%
viability, T/C [15]: 0.23%
viability, T/C [16]: 0.38%
viability, T/C [3]: 19.2%
viability, T/C [17]: 15.4%
viability, T/C [4]: 13.4%
viability, T/C [18]: 7.3%
viability, T/C [19]: 0.09%
viability, T/C [20]: 0.33%
viability, T/C [5]: 19%
viability, T/C [21]: 16.6%
viability, T/C [6]: 13.1%
viability, T/C [22]: 7.79%
viability, T/C [23]: 0.05%
viability, T/C [24]: 0.28%
viability, T/C [7]: 18.3%
viability, T/C [25]: 15.7%
viability, T/C [8]: 12.5%
viability, T/C [26]: 6.92%
viability, T/C [27]: 0.05%
viability, T/C [28]: 0.3%
viability, T/C [9]: 13.3%
viability, T/C [29]: 17.1%
viability, T/C [10]: 14.2%
viability, T/C [30]: 0.81%
viability, T/C [31]: 0.07%
viability, T/C [32]: 0.15%
viability, T/C [11]: 17.1%
viability, T/C [33]: 15.1%
viability, T/C [12]: 15.2%
viability, T/C [34]: 0.07%
viability, T/C [35]: 0.11%
viability, T/C [36]: 0.15%

Compound: C#Cc1c(F)ccc2cc(O)cc(-c3ncc4c(N5CC6CCC(C5)N6)nc(OCC56CCCN5CC(F)C6)nc4c3F)c12 (stereo unspecified) + Cc1[nH]c2ccc(F)cc2c1-c1nc2c3cccnc3c3ncccc3c2[nH]1
IC50 (second compound 0.0316 µM): 6400 nM
IC50 (second compound 0.1 µM): 4770 nM
IC50 (second compound 0.316 µM): 4540 nM
IC50 (second compound 1 µM): 1750 nM
IC50 (second compound 3.16 µM): < 31.6 nM
IC50 (second compound 10 µM): < 31.6 nM
viability, T/C [1]: 88.5%
viability, T/C [13]: 99.4%
viability, T/C [2]: 87.9%
viability, T/C [14]: 78.7%
viability, T/C [15]: 66.7%
viability, T/C [16]: 39.9%
viability, T/C [3]: 108%
viability, T/C [17]: 93.7%
viability, T/C [4]: 80.7%
viability, T/C [18]: 59.5%
viability, T/C [19]: 59.8%
viability, T/C [20]: 41.2%
viability, T/C [5]: 74.3%
viability, T/C [21]: 61%
viability, T/C [6]: 72.8%
viability, T/C [22]: 78.6%
viability, T/C [23]: 56.1%
viability, T/C [24]: 36.7%
viability, T/C [7]: 53%
viability, T/C [25]: 78.2%
viability, T/C [8]: 80.5%
viability, T/C [26]: 51.8%
viability, T/C [27]: 44.2%
viability, T/C [28]: 28.1%
viability, T/C [9]: 24.1%
viability, T/C [29]: 23.5%
viability, T/C [10]: 23.5%
viability, T/C [30]: 22.6%
viability, T/C [31]: 19.3%
viability, T/C [32]: 12.7%
viability, T/C [11]: 31%
viability, T/C [33]: 39.9%
viability, T/C [12]: 38.8%
viability, T/C [34]: 28.5%
viability, T/C [35]: 24.9%
viability, T/C [36]: 15.8%
